PubChem BioAssay AID256 (DTP/NCI, 2004)
Values joined by “and” are separate entries in the source; they are usually repeats but may differ in a detail not shown here. Equal entries are not always repeated. Inconclusive results and toxic doses are left out. How the source made its calls: active means survival T/C of 150% or more; inactive means T/C below 125% in these data.

Test system: CD2F1 mice, L1210 leukemia ip, survival T/C
Assay: NCI In Vivo Anticancer Drug Screen. Data for tumor model L1210 Leukemia (intraperitoneal) in CD2F1 (CDF1) mice
Conditions: higher = longer survival
Method in brief: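 Antitumor effect is scored in animals hosting a serially transplanted tumor. Values compare compound-dosed animals against vehicle-only controls as a simple quotient.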

[1] = endpoint: mean survival time, dose: 12.5 mg/kg/injection, schedule: Q01DX009 (ip), vehicle: saline
[2] = endpoint: mean survival time, dose: 25.0 mg/kg/injection, schedule: Q01DX009 (ip), vehicle: saline
[3] = endpoint: mean survival time, dose: 25.0 mg/kg/injection, schedule: Q01DX009 (ip), vehicle: saline with Tween-80
[4] = endpoint: mean survival time, dose: 50.0 mg/kg/injection, schedule: Q01DX009 (ip), vehicle: saline with Tween-80
[5] = endpoint: mean survival time, dose: 100.0 mg/kg/injection, schedule: Q01DX009 (ip), vehicle: saline with Tween-80
[6] = endpoint: mean survival time, dose: 200.0 mg/kg/injection, schedule: Q01DX009 (ip), vehicle: saline with Tween-80
[7] = endpoint: mean survival time, dose: 400.0 mg/kg/injection, schedule: Q01DX009 (ip), vehicle: saline with Tween-80
[8] = endpoint: mean survival time, dose: 100.0 mg/kg/injection, schedule: Q01DX001 (ip), vehicle: saline with Tween-80
[9] = endpoint: mean survival time, dose: 200.0 mg/kg/injection, schedule: Q01DX001 (ip), vehicle: saline with Tween-80
[10] = endpoint: mean survival time, dose: 400.0 mg/kg/injection, schedule: Q01DX001 (ip), vehicle: saline with Tween-80
[11] = endpoint: mean survival time, dose: 100.0 mg/kg/injection, schedule: Q04DX002 (ip), vehicle: saline with Tween-80

Measured: T/C

OCCCN1CCCCC1CO (stereo unspecified)
inactive: [1] 101 % of control and 103 % of control | [2] 98 % of control and 100 % of control | endpoint: mean survival time, dose: 50.0 mg/kg/injection, schedule: Q01DX009 (ip), vehicle: saline 97 % of control and 98 % of control | endpoint: mean survival time, dose: 100.0 mg/kg/injection, schedule: Q01DX009 (ip), vehicle: saline 97 % of control and 98 % of control | endpoint: mean survival time, dose: 200.0 mg/kg/injection, schedule: Q01DX009 (ip), vehicle: saline 98 % of control | endpoint: mean survival time, dose: 400.0 mg/kg/injection, schedule: Q01DX009 (ip), vehicle: saline 91 % of control and 97 % of control | endpoint: median survival time, dose: 400.0 mg/kg/injection, schedule: Q01DX009 (ip), vehicle: saline 103 % of control | endpoint: median survival time, dose: 800.0 mg/kg/injection, schedule: Q01DX009 (ip), vehicle: saline 97 % of control

C=C(C)C12CC(COC(=O)c3ccccc3)C34OC5(OC1C3C1OC1(COC(=O)CCCCCCCCCCCCCCC)C(O)C1(O)C(OC(=O)c3ccccc3)C(C)C(C(C)CCCCCCC5O)C14)O2 (stereo unspecified)
inactive: endpoint: mean survival time, dose: 6.3 micrograms/kg/injection, schedule: Q01DX009 (ip), vehicle: saline 107 % of control | endpoint: mean survival time, dose: 12.5 micrograms/kg/injection, schedule: Q01DX009 (ip), vehicle: saline 103 % of control | endpoint: mean survival time, dose: 25.0 micrograms/kg/injection, schedule: Q01DX009 (ip), vehicle: saline 102 % of control | endpoint: mean survival time, dose: 50.0 micrograms/kg/injection, schedule: Q01DX009 (ip), vehicle: saline 105 % of control

CCOCCN1CCN(CCCN2c3ccccc3Sc3ccc(C(F)(F)F)cc32)CC1
inactive: endpoint: mean survival time, dose: 1.75 mg/kg/injection, schedule: Q01DX001 (ip), vehicle: water 103 % of control | endpoint: mean survival time, dose: 3.5 mg/kg/injection, schedule: Q01DX001 (ip), vehicle: water 106 % of control | endpoint: mean survival time, dose: 7.0 mg/kg/injection, schedule: Q01DX001 (ip), vehicle: water 105 % of control | endpoint: mean survival time, dose: 9.9 mg/kg/injection, schedule: Q01DX001 (ip), vehicle: water 102 % of control | endpoint: mean survival time, dose: 15.0 mg/kg/injection, schedule: Q01DX001 (ip), vehicle: water 98 % of control | endpoint: mean survival time, dose: 22.0 mg/kg/injection, schedule: Q01DX001 (ip), vehicle: water 106 % of control | endpoint: mean survival time, dose: 37.5 mg/kg/injection, schedule: Q04DX003 (ip), vehicle: saline 122 % of control

O=C1c2ccccc2C(=O)N1c1ccc(Cl)cc1
inactive: endpoint: mean survival time, dose: 100.0 mg/kg/injection, schedule: Q01DX001 (ip), vehicle: Klucel (hydroxypropylcellulose) (HPC) 92 % of control | endpoint: mean survival time, dose: 200.0 mg/kg/injection, schedule: Q01DX001 (ip), vehicle: Klucel (hydroxypropylcellulose) (HPC) 96 % of control | endpoint: mean survival time, dose: 400.0 mg/kg/injection, schedule: Q01DX001 (ip), vehicle: Klucel (hydroxypropylcellulose) (HPC) 107 % of control

C[N+](C)(C)Cc1ncccc1OC(=O)N(c1ccccc1)c1ccccc1
inactive: [3] 98 % of control | [4] 96 % of control | [5] 107 % of control

COc1ccc(OC)c(NC(=O)NCc2ccccc2Cl)c1
inactive: [5] 90 % of control | [6] 100 % of control | [7] 87 % of control

CSc1ccnc2ccccc12
inactive: endpoint: mean survival time, dose: 12.5 mg/kg/injection, schedule: Q01DX009 (ip), vehicle: other 106 % of control | endpoint: mean survival time, dose: 25.0 mg/kg/injection, schedule: Q01DX009 (ip), vehicle: other 100 % of control | endpoint: mean survival time, dose: 50.0 mg/kg/injection, schedule: Q01DX009 (ip), vehicle: other 103 % of control

C(#Cc1ccccc1)/C=C/C(=C\c1ccccc1)c1ccccc1
inactive: [8] 92 % of control | [9] 89 % of control | [10] 87 % of control

OC(CI)C(O)C(O)C(O)CI (stereo unspecified)
inactive: endpoint: mean survival time, dose: 25.0 mg/kg/injection, schedule: Q01DX009 (oral), vehicle: other 106 % of control | endpoint: mean survival time, dose: 50.0 mg/kg/injection, schedule: Q01DX009 (oral), vehicle: other 106 % of control | endpoint: mean survival time, dose: 100.0 mg/kg/injection, schedule: Q01DX009 (oral), vehicle: other 95 % of control | endpoint: mean survival time, dose: 200.0 mg/kg/injection, schedule: Q01DX009 (oral), vehicle: other 107 % of control | endpoint: mean survival time, dose: 400.0 mg/kg/injection, schedule: Q01DX009 (oral), vehicle: other 107 % of control | endpoint: mean survival time, dose: 800.0 mg/kg/injection, schedule: Q01DX009 (oral), vehicle: other 124 % of control

C1CC2C3CCC(C3)C2C1 (stereo unspecified)
inactive: [5] 103 % of control | [6] 102 % of control | [7] 96 % of control

Cc1cn(C2CC(O)C(CO)O2)c(=O)nc1N1CCCCCCC1 (stereo unspecified)
inactive: endpoint: median survival time, dose: 12.5 mg/kg/injection, schedule: Q01DX005 (ip), vehicle: water 102 % of control | endpoint: median survival time, dose: 25.0 mg/kg/injection, schedule: Q01DX005 (ip), vehicle: water 102 % of control | endpoint: median survival time, dose: 50.0 mg/kg/injection, schedule: Q01DX005 (ip), vehicle: water 102 % of control | endpoint: median survival time, dose: 100.0 mg/kg/injection, schedule: Q01DX005 (ip), vehicle: water 102 % of control | endpoint: median survival time, dose: 200.0 mg/kg/injection, schedule: Q01DX005 (ip), vehicle: water 103 % of control

CCCCCOC(CN)C(Cl)(Cl)Cl (stereo unspecified)
inactive: endpoint: mean survival time, dose: 12.5 mg/kg/injection, schedule: Q01DX009 (ip), vehicle: saline with Tween-80 101 % of control | [3] 96 % of control | [4] 95 % of control | [5] 98 % of control

Nc1nc(N)c2nc3c(nc2n1)CCCC3
inactive: [8] 95 % of control | [9] 87 % of control | [10] 87 % of control

CC(=O)C(Cl)C(=O)c1c(C)[nH]n(-c2ccccc2)c1=O (stereo unspecified)
inactive: endpoint: median survival time, dose: 25.0 mg/kg/injection, schedule: Q01DX005 (ip), vehicle: Klucel (hydroxypropylcellulose) (HPC) 112 % of control | endpoint: median survival time, dose: 50.0 mg/kg/injection, schedule: Q01DX005 (ip), vehicle: Klucel (hydroxypropylcellulose) (HPC) 111 % of control | endpoint: median survival time, dose: 100.0 mg/kg/injection, schedule: Q01DX005 (ip), vehicle: Klucel (hydroxypropylcellulose) (HPC) 111 % of control

COC1=C(Br)[C@H](O)[C@](O)(CC#N)C=C1Br
inactive: endpoint: mean survival time, dose: 6.25 mg/kg/injection, schedule: Q01DX009 (ip), vehicle: saline 113 % of control | [1] 111 % of control | endpoint: mean survival time, dose: 17.5 mg/kg/injection, schedule: Q01DX009 (ip), vehicle: Klucel (hydroxypropylcellulose) (HPC) 98 % of control | [2] 117 % of control | endpoint: mean survival time, dose: 35.0 mg/kg/injection, schedule: Q01DX009 (ip), vehicle: Klucel (hydroxypropylcellulose) (HPC) 100 % of control | endpoint: mean survival time, dose: 70.0 mg/kg/injection, schedule: Q01DX009 (ip), vehicle: Klucel (hydroxypropylcellulose) (HPC) 102 % of control

Cc1ccc2c(c1Oc1ccc(S(N)(=O)=O)cc1)C(=O)c1ccccc1C2=O
inactive: [5] 103 % of control | endpoint: mean survival time, dose: 100.0 mg/kg/injection, schedule: Q04DX003 (ip), vehicle: saline sonified 88 % of control | endpoint: mean survival time, dose: 100.0 mg/kg/injection, schedule: Q04DX003 (ip), vehicle: saline with Tween-80 90 % of control | [6] 101 % of control | [7] 97 % of control | endpoint: mean survival time, dose: 400.0 mg/kg/injection, schedule: Q04DX003 (ip), vehicle: saline sonified 107 % of control

CC(=O)OC1CCCCC1OC(C)=O (stereo unspecified)
inactive: [4] 92 % of control | [5] 92 % of control | [6] 103 % of control

COc1cc(N=CNc2cc(OC)n[n+]([O-])c2)c[n+]([O-])n1
inactive: endpoint: mean survival time, dose: 12.5 mg/kg/injection, schedule: Q04DX002 (ip), vehicle: saline with Tween-80 111 % of control | endpoint: mean survival time, dose: 25.0 mg/kg/injection, schedule: Q04DX002 (ip), vehicle: saline with Tween-80 86 % of control | endpoint: mean survival time, dose: 50.0 mg/kg/injection, schedule: Q04DX002 (ip), vehicle: saline with Tween-80 101 % of control

CC(=O)OC1CCC2(C)C(=C(C)CC3C2CCC2(C)C(C(C)=O)CCC32)C1 (stereo unspecified)
inactive: [5] 98 % of control | [6] 95 % of control | [7] 97 % of control

CN(C)c1nc(-c2ccncc2)nc(N2CCOCC2)n1
inactive: [11] 92 % of control

CCOC(=O)CCN(CCC(=O)OCC)Cc1ccccc1
inactive: [11] 112 % of control | endpoint: mean survival time, dose: 200.0 mg/kg/injection, schedule: Q04DX002 (ip), vehicle: saline with Tween-80 100 % of control | endpoint: mean survival time, dose: 400.0 mg/kg/injection, schedule: Q04DX002 (ip), vehicle: saline with Tween-80 103 % of control

Nc1nc2c(ncn2-c2ccc(NC(=O)c3cccc(S(=O)(=O)F)c3)cc2)c(=O)[nH]1
inactive: endpoint: mean survival time, dose: 37.5 mg/kg/injection, schedule: Q04DX002 (ip), vehicle: saline with Tween-80 90 % of control | endpoint: mean survival time, dose: 75.0 mg/kg/injection, schedule: Q04DX002 (ip), vehicle: saline with Tween-80 111 % of control | endpoint: mean survival time, dose: 150.0 mg/kg/injection, schedule: Q04DX002 (ip), vehicle: saline with Tween-80 94 % of control
